Laboratory results taken from patent US20250042882A1, “CERTAIN 3-AZABICYCLO[3.1.0]HEXANES AS GLP-1 RECEPTOR MODULATORS” (AstraZeneca AB, priority 2021, published 2025).
pEC50, pIC50: −log10 of the molar value.

Legend:
human GLP-1R receptor = target: T1, human GLP-1R receptor (Homo sapiens, UniProt P43220, L260F); assay: CHOK1 GLP-1R cAMP Assay; assay type: cell-based; settings: CHO-K1 cell line stably expressing human GLP-1R (Leu260Phe variant); HTRF cAMP; agonist activity
T1 construct: expressed in transfected cells; host or cells: CHO-K1 (ATCC CCL-61)
T1 sequence (P43220 24-463 L260F): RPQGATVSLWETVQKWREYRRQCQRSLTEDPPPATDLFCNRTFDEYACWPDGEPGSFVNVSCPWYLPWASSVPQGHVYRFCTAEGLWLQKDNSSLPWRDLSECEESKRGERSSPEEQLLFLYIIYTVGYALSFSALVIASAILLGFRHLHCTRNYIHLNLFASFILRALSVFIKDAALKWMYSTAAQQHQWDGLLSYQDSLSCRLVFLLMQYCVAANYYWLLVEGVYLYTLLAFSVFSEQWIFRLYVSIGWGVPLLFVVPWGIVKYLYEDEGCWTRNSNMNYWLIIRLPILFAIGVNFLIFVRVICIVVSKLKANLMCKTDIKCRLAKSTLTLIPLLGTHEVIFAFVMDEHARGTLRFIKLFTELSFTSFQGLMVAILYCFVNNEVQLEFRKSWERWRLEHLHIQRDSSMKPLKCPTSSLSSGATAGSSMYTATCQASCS
Experimental: A cell line stably expressing the human GLP-1R receptor (NM_002062.5, including the naturally-occurring variant Leu260Phe) in a CHO-K1 (ATCC® CCL-61™) was used for assay.
GLP-1 receptor mediated agonist activity was determined in a cell-based assay measuring cyclic adenosine monophosphate (cAMP) levels in cells using Homogeneous Time-Resolved Fluorescence (HTRF) cAMP detection kit (CisBio catalog #62AM4PEC, cAMP Gs Dynamic range kit). The cAMP detection method is based on a competitive immunoassay, in which cAMP produced by the cells and cAMP labeled with the dye d2 compete for binding to a Europium-Cryptate-labeled anti-cAMP antibody. The specific HTRF signal is inversely proportional to the concentration of cAMP.
Compounds were added to individual well in 384 well-assay plates (Greiner #784076) using an Echo (LabCyte) dispenser from 10 mM stocks. Varying concentration of compounds were added to wells, and DMSO was used to normalize each well to a volume of 100 nL. A dose response curve of GLP-1(7-36)NH2 (Bachem H-6795) was included in each run. 5 μL of cAMP concentration response standards are applied in specified wells in the assay plates. Cryo-preserved cells are thawed and resuspended in assay buffer pre-heated to 37° C. (20 mM HEPES pH 7.4, 1× Hank's Balanced Salt Solution (HBSS, Life Technologies #14065) supplemented with 0.1% (w/v) bovine serum albumin (Sigma, A-7030). Cells were centrifuged at 250*g for 5 min at rt, and resuspended in room tempered assay buffer to a final density of 0.16*10^6 cell/mL, to deliver 800 cells/well. 5 μL of assay buffer with 1 mM 3-isobutyl-1-methylxanthin (IBMX; Sigma cat I-7018) was dispensed per well in assay plates using a multidrop combi (Thermo Scientific) subsequently 5 μL of cell suspension was distributed to relevant wells in the assay using a multidrop dispenser. Assay plates were incubated 20 min at rt.
Detection reagents, Europium-Cryptate-labeled anti-cAMP antibody and cAMP labeled with the dye d2, are diluted in lysis buffer, provided by the manufacturer. 5 μL of each detection reagent is supplemented to each assay well using a multidrop dispenser. Assay plates are incubated in the dark for at least one h. The HTRF signal is measured using the HTRF module (excitation: 337 nm, emission A: 665 nm and emission B: 620 nm) in Pherastar FSX (BMG Labtech).
Raw data were converted to pM cAMP using the cAMP standard curve included in each run.
Converted data were further analyzed in Genedata Screener (Genedata) and EC50 determinations were made from agonist dose-response curves analyzed with a curve fitting program using a 4-parameter logistic dose response equation (Equation y=A+((B−A)/1+((C/x)^D))) where A is no stimulation, B is full stimulation, C is the EC50 and D is the Hill slope). The percent effect was determined relative to a saturating concentration of a full GLP-1R agonist (GLP-1(7-36)NH2 has 100% effect in this assay setup).

GLP-1R = target: T2, GLP-1R (Homo sapiens, UniProt P43220); assay: EndoC cAMP Accumulation Assay; assay type: cell-based; settings: EndoC-βH1 human pancreatic β cell line; HTRF cAMP accumulation
T2 construct: host or cells: EndoC-βH1 human pancreatic beta cell line
T2 sequence (P43220 24-463): as the sequence (P43220 24-463 L260F) above, with F237L counted along it
Text: EndoC cAMP Accumulation Assay
A HTRF cAMP assay (cAMP Gs dynamic kit; CisoBio Cat #62AM4PEJ) was used to identify agonists of GLP-1R in a pancreatic insulinoma cell line (EndoC-⊕H1). […] EndoC-PHlcells have detectable GLP-1R messenger ribonucleic acid (mRNA) as detected by quantitative polymerase chain reaction (qPCR). […] The EndoC-PH1 cell line is a valid model of human beta cells and applicable for screenings to identify novel drug target candidates (Mol. Metab., 2018, 8, 144-157). CisBio HTRF cAMP kits are based on a competitive immunoassay using cryptate-labelled anti-cAMP antibody and d2-labeled cAMP. The detection kit is intended for the direct quantitative determination of cAMP. The specific signal (i.e. energy transfer) is inversely proportional to the concentration of cAMP in the standard or sample. Test compounds (10 mM in DMSO) were diluted into assay buffer (HBSS (Sigma #H8264) supplemented with 25 mM HEPES (Gibco #15630, pH 7.4), 0.1% BSA (Sigma #A3059) and 0.5 mM IBMX (Sigma #I7018) included fresh on the day of the assay) into 96 well U-bottom plates (Greiner #650201). Diluted compounds were transferred to ECHO source polypropylene plates (Labcyte #P-05525) and dose response curves were dispensed acoustically using ECHO 550 into black shallow-well u-bottom 384-well HTRF Assay Plates (Corning 4514).
Cryovials of EndoC-H1 (supplied at 1×10e^7 cells/vial) were used directly for screening. The cryovials and were removed from N2(l) and thawed rapidly in a 37° C. water bath. The cells were resuspended in assay buffer and centrifuged at 300 g for 5 min. Cells were resuspended in assay buffer at the appropriate concentration, typically at 12e5 cells per mL (3000 cells per well, dependent on cell batch) and 2.5 μL diluted cells were added to all wells of destination plate by Multidrop combi reagent dispenser (Thermofisher). The plates were incubated at rt for 30 min. The assay was stopped by adding 2.5 μL anti-cAMP cryptate solution to all wells and 2.5 μL cAMP-d2 solution (both diluted 1:20 in lysis buffer) to columns 1-22 by Combi drop. A volume of 2.5 μL cAMP-d2 solution was added to wells E23 to P24 and 2.5 μL lysis buffer added to wells A23 to D24 by multichannel pipette. The plates were incubated at rt for 1 h and read on an Envision plate reader using excitation wavelength of 320 mn and emission of 590 nm and 660 nm.
Raw data from Envision is converted to % DeltaF according to the manufacturer's instructions. Dose response curves are analysed via 4-Parameter Logistical Analysis and assay plate Z′ values obtained. Samples are graphed as percentage (%) activation plots compared to GIP (1-42, Bachem H-5645) with assay window defined by negative control as basal cell cAMP levels and positive control are defined by maximum GIP (82.5 nM) signal. GLP-1 (7-36 amide, Bachem H-6795) dose response curve was included on all plates.

[1] = target: T3, human phosphodiesterase-3A (Homo sapiens, UniProt Q14432); assay: PDE3 Assay; assay type: biochemical; settings: human recombinant enzyme expressed in Sf9 cells; formation of 5′AMP from cAMP, SPA
T3 construct: host or cells: Sf9 (Spodoptera frugiperda)
T3 sequence (Q14432 whole entry): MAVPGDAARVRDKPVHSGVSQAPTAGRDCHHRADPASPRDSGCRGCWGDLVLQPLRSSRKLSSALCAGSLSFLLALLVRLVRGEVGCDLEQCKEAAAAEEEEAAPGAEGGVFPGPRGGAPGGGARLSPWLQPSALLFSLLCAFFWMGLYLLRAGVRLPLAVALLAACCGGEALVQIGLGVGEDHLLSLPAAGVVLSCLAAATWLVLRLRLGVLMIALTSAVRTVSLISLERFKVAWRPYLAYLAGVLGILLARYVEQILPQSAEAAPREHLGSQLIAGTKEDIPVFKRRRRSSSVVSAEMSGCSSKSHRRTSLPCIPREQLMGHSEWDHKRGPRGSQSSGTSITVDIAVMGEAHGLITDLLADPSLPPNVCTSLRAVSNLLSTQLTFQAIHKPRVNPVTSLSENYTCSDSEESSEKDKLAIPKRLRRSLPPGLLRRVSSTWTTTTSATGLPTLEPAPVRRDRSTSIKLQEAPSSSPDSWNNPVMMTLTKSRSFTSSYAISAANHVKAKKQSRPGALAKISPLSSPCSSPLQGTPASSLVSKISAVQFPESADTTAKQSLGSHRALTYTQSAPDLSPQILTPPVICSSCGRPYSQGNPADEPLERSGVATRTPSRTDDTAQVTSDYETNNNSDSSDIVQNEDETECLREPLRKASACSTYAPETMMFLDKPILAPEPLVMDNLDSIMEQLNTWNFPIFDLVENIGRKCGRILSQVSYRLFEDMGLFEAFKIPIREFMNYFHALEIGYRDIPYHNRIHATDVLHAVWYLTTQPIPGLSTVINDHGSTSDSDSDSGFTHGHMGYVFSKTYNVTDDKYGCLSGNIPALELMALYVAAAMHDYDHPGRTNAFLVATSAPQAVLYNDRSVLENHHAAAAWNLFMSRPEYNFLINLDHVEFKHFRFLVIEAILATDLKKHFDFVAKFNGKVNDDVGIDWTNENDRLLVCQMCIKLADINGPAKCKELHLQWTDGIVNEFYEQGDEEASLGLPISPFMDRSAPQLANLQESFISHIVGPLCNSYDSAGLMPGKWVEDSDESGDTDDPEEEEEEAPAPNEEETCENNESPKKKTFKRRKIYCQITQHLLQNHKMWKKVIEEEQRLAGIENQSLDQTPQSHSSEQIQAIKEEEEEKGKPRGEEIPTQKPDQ
Experimental: Evaluation of the effects of compounds on the activity of the human phosphodiesterase-3A is quantified by measuring the formation of 5′AMP from cAMP using a human recombinant enzyme expressed in a clonal isolate of Spodoptera frugiperda cells (Sf9) cells.
The test compound, reference compound or water (control) are added to a buffer containing 40 mM tris(hydroxymethyl)aminomethane (Tris)/HCl (pH 7.4) and 8 mM MgCl2, 450 nMcAMP and 0.25 μCi [^3H]cAMP.
Thereafter, the reaction is initiated by addition of the enzyme (about 1 U) and the mixture is incubated for 20 min at 22° C.
For basal control measurements, the enzyme is omitted from the reaction mixture.
Following incubation SPA beads are added. After 30 min at 22° C. under shaking, the amount of [^3H]5′AMP is quantified with a scintillation counter (Topcount, Packard).
The results are expressed as a percent inhibition of the control enzyme activity. The standard inhibitory reference compound is milrinone (CAS number 78415-72-2), which is tested in each experiment at several concentrations to obtain an inhibition curve from which its IC50 value is calculated.

Row | Molecule | pEC50 (human GLP-1R receptor) | pEC50 (GLP-1R) | pIC50 [1]
1 | 2-(((1R,5S6R)-6-((R*)-2-(5-Chloropyridin-2-yl)-5-fluoro-2-methylbenzo[d][1,3]dioxol-4-yl)-3-azabicyclo[3.1.0]hexan-3-yl)methyl)-4-fluoro-1-(((S)-oxetan-2-yl)methyl)-1H-benzo[d]imidazole-6-carboxylic acid [Example 10a] | 7.72 | 7.89 | < 4.00
2 | COc1cc(C(=O)O)cc2c1nc(CN1C[C@@H]3[C@H](C1)[C@H]3c1cccc3c1O[C@](C)(c1ccc(Cl)cc1F)O3)n2CC1CCO1 (relative stereo) [Example 2, 2-(((1R,5S,6R)-6-((R*)-2-(4-Chloro-2-fluorophenyl)-2-methylbenzo[d][1,3]dioxol-4-yl)-3-azabicyclo[3.1.0]hexan-3-yl)methyl)-4-methoxy-1-(((S)-oxetan-2-yl)methyl)-1H-benzo[d]imidazole-6-carboxylic acid] | 7.85 | 7.82 | < 5.00
3 | C[C@@]1(c2ccc(Cl)cn2)Oc2cccc([C@H]3[C@@H]4CN(Cc5nc6c(F)cc(C(=O)O)cc6n5CCn5cccn5)C[C@@H]43)c2O1 (single isomer, unassigned) [Example 7, 1-(2-(1H-Pyrazol-1-yl)ethyl)-2-(((1R,5S,6s)-6-((R*)-2-(5-chloropyridin-2-yl)-2-methylbenzo[d][1,3]dioxol-4-yl)-3-azabicyclo[3.1.0]hexan-3-yl)methyl)-4-fluoro-1H-benzo[d]imidazole-6-carboxylic acid] | 6.59 | 6.82 | –
4 | CCn1cncc1Cn1c(CN2C[C@@H]3[C@H](C2)[C@H]3c2cccc3c2O[C@](C)(c2ccc(Cl)cn2)O3)nc2c(Cl)cc(C(=O)O)cc21 (single isomer, unassigned) [Example 12, 4-Chloro-2-(((1R,5S,6s)-6-((R*)-2-(5-chloropyridin-2-yl)-2-methylbenzo[d][1,3]dioxol-4-yl)-3-azabicyclo[3.1.0]hexan-3-yl)methyl)-1-((1-ethyl-1H-imidazol-5-yl)methyl)-1H-benzo[d]imidazole-6-carboxylic acid] | 7.52 | 8.12 | –
5 | CC1(c2ccc(Cl)cc2F)Oc2cccc([C@H]3[C@@H]4CN(Cc5nc6ccc(C(=O)O)cc6n5CC5CCO5)C[C@@H]43)c2O1 (stereo partly drawn) [Example 1, 2-(((1R,5S,6R)-6-(2-(4-Chloro-2-fluorophenyl)-2-methylbenzo[d][1,3]dioxol-4-yl)-3-azabicyclo[3.1.0]hexan-3-yl)methyl)-1-(((S)-oxetan-2-yl)methyl)-1H-benzo[d]imidazole-6-carboxylic acid] | 6.74 | 7.16 | –
6 | CC1(c2ccc(Cl)cn2)Oc2cccc([C@H]3[C@@H]4CN(Cc5nc6ccc(C(=O)O)cc6n5CC5CCO5)C[C@@H]43)c2O1 (stereo partly drawn) [Example 3, 2-(((1R,5S,6R)-6-(2-(5-Chloropyridin-2-yl)-2-methylbenzo[d][1,3]dioxol-4-yl)-3-azabicyclo[3.1.0]hexan-3-yl)methyl)-1-(((S)-oxetan-2-yl)methyl)-1H-benzo[d]imidazole-6-carboxylic acid] | 6.59 | 6.77 | –
7 | COc1cc(C(=O)O)cc2c1nc(CN1C[C@@H]3[C@H](C1)[C@H]3c1c(F)ccc3c1OC(C)(c1ccc(Cl)cn1)O3)n2C[C@@H]1CCO1 (stereo partly drawn) [Example 6, 2-(((1R,5S,6R)-6-(2-(5-Chloropyridin-2-yl)-5-fluoro-2-methylbenzo[d][1,3]dioxol-4-yl)-3-azabicyclo[3.1.0]hexan-3-yl)methyl)-4-methoxy-1-(((S)-oxetan-2-yl)methyl)-1H-benzo[d]imidazole-6-carboxylic acid] | 7.51 | 7.72 | –
8 | N#Cc1ccc(COc2cccc(C3CCN(Cc4nc5ccc(C(=O)O)cc5n4C[C@@H]4CCO4)CC3)n2)c(F)c1 [Ref Comp B, reference compound] | – | – | 4.96
